Active and inactive are the calls of the source. No cut-off for these calls is given here.
Assays:
[1] = Antiproliferative activity against human SKGT4 cells measured after 48 hrs by MTS assay; type: functional
[2] = target: T1, Coiled-coil domain-containing protein 6/Tyrosine-protein kinase receptor RET (Homo sapiens) (UniProt P07949+Q16204); assay: Inhibition of CCDC6-RET fusion protein (unknown origin) expressed in mouse BaF3 cells assessed as reduction in AKT phosphorylation at 10 to 500 nM measured after 4 hrs by Western blot analysis; type: cell-based; conditions: dose 10-500 nM
Mus musculus [3] = assay: (§1) In vivo inhibition of KIF5B-RET fusion protein in BALB/c mouse implanted with KIF5B-RET fusion protein expressing mouse BaF3 cells assessed as reduction in SHC phosphorylation at 30 to 50 mg/kg, iv administered daily for 7 days and measured 4 hrs post last dose by Western blot analysis; type: functional, organism-based; conditions: dose 30-50 mg/kg, time 7.0 day
Mus musculus [4] = assay: as §1, with “KIF5B-RET V804M mutant” for “KIF5B-RET”, “RET” for “SHC”; type: functional, organism-based; conditions: dose 30-50 mg/kg, time 7.0 day
[5] = target: T1, Coiled-coil domain-containing protein 6/Tyrosine-protein kinase receptor RET (Homo sapiens); assay: Inhibition of CCDC6-RET fusion protein (unknown origin) expressed in mouse BaF3 cells assessed as reduction in RET phosphorylation at 10 to 500 nM measured after 4 hrs by Western blot analysis; type: cell-based; conditions: dose 10-500 nM
[6] = target: T1, Coiled-coil domain-containing protein 6/Tyrosine-protein kinase receptor RET (Homo sapiens); assay: Inhibition of CCDC6-RET fusion protein (unknown origin) expressed in mouse BaF3 cells assessed as reduction in cell proliferation measured after 48 hrs by MTS assay; type: cell-based
[7] = target: Proto-oncogene tyrosine-protein kinase receptor Ret (Homo sapiens, UniProt P07949); assay: Inhibition of recombinant wild-type human N-terminal GST-HIS6 fused RET C-terminal domain (H658 to S1114 residues) expressed in Sf9 insect cells using TRK-C-derived peptide as substrate in presence of [33P]-ATP by filter binding assay
[8] = Half life in Sprague-Dawley rat at 1 mg/kg, iv; type: ADME, organism-based; conditions: in vivo
[9] = Tmax in Sprague-Dawley rat at 1 mg/kg, iv; type: ADME, organism-based; conditions: in vivo
BaF3 [10] = assay: Inhibition of CCDC6-RET V804M mutant fusion protein (unknown origin) expressed in mouse BaF3 cells assessed as reduction in ERK phosphorylation at 10 to 500 nM measured after 4 hrs by Western blot analysis; type: cell-based; conditions: Homo sapiens, dose 10-500 nM
[11] = Cytotoxicity against mouse BaF3 cells assessed as reduction in cell proliferation measured after 48 hrs by MTS assay; type: cell-based
[12] = target: Kinesin-1 heavy chain/ Tyrosine-protein kinase receptor RET (Homo sapiens, UniProt P07949); assay: Inhibition of KIF5B-RET fusion protein (unknown origin) by radiometric assay
BGC-823 = assay: Antiproliferative activity against human BGC-823 cells at 3.3 uM measured after 48 hrs by MTS assay; type: functional; conditions: read-out: GI
BaF3 [13] = assay: Antitumor activity against KIF5B-RET V804M mutant fusion protein expressing mouse BaF3 cells implanted in BALB/c mouse assessed as tumor growth inhibition at 30 to 50 mg/kg, iv administered once daily for 7 days relative to control; type: functional; conditions: dose 30-50 mg/kg, time 7 day
[14] = tested on: Kinesin-1 heavy chain/ Tyrosine-protein kinase receptor RET (Homo sapiens), P07949+P33176 [V804M]; assay: Inhibition of KIF5B-RET V804M mutant fusion protein (unknown origin) expressed in mouse BaF3 cells assessed as reduction in cell proliferation measured after 48 hrs by MTS assay; type: cell-based
[15] = tested on: Kinesin-1 heavy chain/ Tyrosine-protein kinase receptor RET (Homo sapiens), P07949+P33176 [V804M]; assay: Inhibition of KIF5B-RET V804M mutant fusion protein (unknown origin) expressed in mouse BaF3 cells assessed as reduction in […] measured after 4 hrs by Western blot analysis; type: cell-based
BaF3 [16] = assay: Antitumor activity against KIF5B-RET fusion protein expressing mouse BaF3 cells implanted in iv dosed BALB/c mouse assessed as tumor growth inhibition administered once daily for 7 days; type: functional, organism-based; conditions: dose 30-50 mg/kg, time 7.0 day
[17] = Oral bioavailability in Sprague-Dawley rat at 10 mg/kg; type: ADME, organism-based; conditions: in vivo
[18] = target: T2, Kinesin-1 heavy chain/ Tyrosine-protein kinase receptor RET (Homo sapiens) (UniProt P07949+P33176); assay: Inhibition of KIF5B-RET fusion protein (unknown origin) expressed in mouse BaF3 cells assessed as reduction in cell proliferation measured after 48 hrs by MTS assay; type: cell-based
KYSE-450 = assay: Antiproliferative activity against human KYSE-450 cells at 3.3 uM measured after 48 hrs by MTS assay; type: functional; conditions: read-out: GI
MDA-MB-231 = assay: Antiproliferative activity against human MDA-MB-231 cells measured after 48 hrs by MTS assay; type: functional
BaF3 [19] = assay: Inhibition of CCDC6-RET V804M mutant fusion protein (unknown origin) expressed in mouse BaF3 cells assessed as reduction in AKT phosphorylation at 10 to 500 nM measured after 4 hrs by Western blot analysis; type: cell-based; conditions: Homo sapiens, dose 10-500 nM
[20] = tested on: Proto-oncogene tyrosine-protein kinase receptor Ret (Homo sapiens), P07949 [V804L]; assay: Binding affinity to wild-type human partial length RET V804L mutant (E713 to D1014 residues) expressed in bacterial expression system assessed as residual binding level at 1 uM by kinomescan method relative to control
Mus musculus [21] = assay: as §1, with “KIF5B-RET V804M mutant” for “KIF5B-RET”; type: functional, organism-based; conditions: dose 30-50 mg/kg, time 7.0 day
[22] = tested on: Kinesin-1 heavy chain/ Tyrosine-protein kinase receptor RET (Homo sapiens), P07949+P33176 [V804M]; assay: Inhibition of KIF5B-RET V804M mutant fusion protein (unknown origin) expressed in mouse BaF3 cells assessed as reduction in ERK phosphorylation at 500 nM measured after 4 hrs by Western blot analysis; type: cell-based
[23] = target: T2, Kinesin-1 heavy chain/ Tyrosine-protein kinase receptor RET (Homo sapiens); assay: Inhibition of KIF5B-RET fusion protein (unknown origin) expressed in mouse BaF3 cells assessed as reduction in […] measured after 4 hrs by Western blot analysis; type: cell-based
[24] = tested on: Proto-oncogene tyrosine-protein kinase receptor Ret (Homo sapiens), P07949 [V804M]; assay: Binding affinity to wild-type human partial length RET V804M mutant (E713 to D1014 residues) expressed in bacterial expression system assessed as residual binding level at 1 uM by kinomescan method relative to control
BaF3 [25] = assay: Induction of apoptosis in KIF5B-RET V804M mutant fusion protein expressing mouse BaF3 cells implanted in BALB/c mouse assessed as increase in cleaved PARP level at 30 to 50 mg/kg, iv administered once daily for 7 days measured 4 hrs post last dose by Western blot analysis; type: functional, organism-based; conditions: dose 30-50 mg/kg, time 7.0 day
[26] = Half life in Sprague-Dawley rat at 10 mg/kg, po; type: ADME, organism-based; conditions: in vivo
[27] = target: T2, Kinesin-1 heavy chain/ Tyrosine-protein kinase receptor RET (Homo sapiens); assay: Inhibition of KIF5B-RET fusion protein (unknown origin) expressed in mouse BaF3 cells assessed as reduction in RET autophosphorylation at 50 nM measured after 4 hrs by Western blot analysis; type: cell-based
[28] = Toxicity in BALB/c mouse implanted with KIF5B-RET V804M mutant fusion protein expressing mouse BaF3 cells assessed as body weight loss at 30 to 50 mg/kg, iv administered daily for 7 days measured daily during compound dosing; type: organism-based; conditions: in vivo, 168 h, dose 30-50 mg/kg, time 7 day
[29] = AUC (0 to infinity) in Sprague-Dawley rat at 1 mg/kg, iv; type: ADME, organism-based; set-up: route intravenous, time infinity, dose 1 mg/kg; conditions: in vivo

T1 sequence (P07949 29-1114 limits assumed): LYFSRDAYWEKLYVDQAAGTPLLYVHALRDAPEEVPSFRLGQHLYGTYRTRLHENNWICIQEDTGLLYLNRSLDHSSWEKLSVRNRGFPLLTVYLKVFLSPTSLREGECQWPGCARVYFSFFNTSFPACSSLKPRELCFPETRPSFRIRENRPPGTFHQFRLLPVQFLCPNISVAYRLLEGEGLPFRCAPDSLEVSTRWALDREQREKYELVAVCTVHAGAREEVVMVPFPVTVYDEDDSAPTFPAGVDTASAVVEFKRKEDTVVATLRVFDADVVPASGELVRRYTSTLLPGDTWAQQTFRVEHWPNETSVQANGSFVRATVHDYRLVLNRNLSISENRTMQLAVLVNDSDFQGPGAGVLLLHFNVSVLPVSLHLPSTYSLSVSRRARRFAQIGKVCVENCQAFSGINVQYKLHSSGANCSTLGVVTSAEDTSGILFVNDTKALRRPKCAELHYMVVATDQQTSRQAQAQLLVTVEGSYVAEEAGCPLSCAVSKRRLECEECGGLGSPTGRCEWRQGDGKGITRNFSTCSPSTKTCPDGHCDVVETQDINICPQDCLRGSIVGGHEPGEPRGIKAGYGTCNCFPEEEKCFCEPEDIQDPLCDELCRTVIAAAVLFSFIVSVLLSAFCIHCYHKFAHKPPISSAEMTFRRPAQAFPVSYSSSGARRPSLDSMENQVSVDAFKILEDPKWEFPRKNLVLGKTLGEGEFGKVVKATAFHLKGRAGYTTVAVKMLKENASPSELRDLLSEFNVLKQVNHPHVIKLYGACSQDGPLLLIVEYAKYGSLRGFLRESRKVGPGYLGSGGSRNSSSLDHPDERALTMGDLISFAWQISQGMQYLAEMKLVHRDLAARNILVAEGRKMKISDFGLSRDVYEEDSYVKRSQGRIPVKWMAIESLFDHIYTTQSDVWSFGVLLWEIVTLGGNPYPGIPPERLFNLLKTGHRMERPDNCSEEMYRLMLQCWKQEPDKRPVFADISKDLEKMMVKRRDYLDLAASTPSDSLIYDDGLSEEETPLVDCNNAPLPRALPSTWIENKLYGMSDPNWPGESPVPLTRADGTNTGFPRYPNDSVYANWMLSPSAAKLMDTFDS
T1 sequence (Q16204 2-474 partner limits assumed): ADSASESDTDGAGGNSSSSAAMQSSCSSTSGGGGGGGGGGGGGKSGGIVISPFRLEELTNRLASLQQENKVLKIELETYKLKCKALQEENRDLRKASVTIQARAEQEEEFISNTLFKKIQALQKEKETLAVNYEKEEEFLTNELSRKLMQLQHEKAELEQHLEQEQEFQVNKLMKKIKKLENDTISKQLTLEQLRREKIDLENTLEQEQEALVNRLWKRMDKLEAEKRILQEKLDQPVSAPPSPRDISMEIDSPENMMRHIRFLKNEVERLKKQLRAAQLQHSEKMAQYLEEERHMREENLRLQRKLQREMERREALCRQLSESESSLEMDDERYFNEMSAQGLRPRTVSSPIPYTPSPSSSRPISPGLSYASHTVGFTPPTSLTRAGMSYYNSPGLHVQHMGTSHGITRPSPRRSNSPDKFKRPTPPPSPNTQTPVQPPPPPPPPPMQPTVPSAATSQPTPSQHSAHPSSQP
T2 sequence (P07949 29-1114 limits assumed): as the sequence (P07949 29-1114 limits assumed) above
T2 sequence (P33176 2-963 partner limits assumed): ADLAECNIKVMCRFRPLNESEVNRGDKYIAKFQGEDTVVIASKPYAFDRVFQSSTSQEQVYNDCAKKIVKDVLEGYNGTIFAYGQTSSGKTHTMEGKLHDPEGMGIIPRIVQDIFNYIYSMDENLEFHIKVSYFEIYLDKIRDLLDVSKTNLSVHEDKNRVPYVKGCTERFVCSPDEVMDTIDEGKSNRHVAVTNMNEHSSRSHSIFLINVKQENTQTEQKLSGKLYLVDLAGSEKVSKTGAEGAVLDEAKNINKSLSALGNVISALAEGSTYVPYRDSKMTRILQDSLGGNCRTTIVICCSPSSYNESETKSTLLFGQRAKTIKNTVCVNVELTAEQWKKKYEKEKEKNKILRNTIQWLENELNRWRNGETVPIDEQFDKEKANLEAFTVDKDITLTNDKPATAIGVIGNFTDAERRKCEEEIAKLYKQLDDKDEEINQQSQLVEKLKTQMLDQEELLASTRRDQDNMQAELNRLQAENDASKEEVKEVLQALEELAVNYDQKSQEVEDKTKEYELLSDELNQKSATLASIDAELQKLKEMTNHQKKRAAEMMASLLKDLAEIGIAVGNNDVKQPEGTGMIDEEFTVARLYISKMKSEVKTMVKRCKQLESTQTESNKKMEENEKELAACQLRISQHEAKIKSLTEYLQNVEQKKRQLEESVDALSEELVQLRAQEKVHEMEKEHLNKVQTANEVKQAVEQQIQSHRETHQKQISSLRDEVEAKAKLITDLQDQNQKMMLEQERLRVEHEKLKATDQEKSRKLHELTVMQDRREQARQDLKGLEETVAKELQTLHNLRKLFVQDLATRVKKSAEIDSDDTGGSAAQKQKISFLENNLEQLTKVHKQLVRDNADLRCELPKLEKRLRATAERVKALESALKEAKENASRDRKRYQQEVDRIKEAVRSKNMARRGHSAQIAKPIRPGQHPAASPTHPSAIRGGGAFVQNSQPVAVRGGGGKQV
Chain of Proto-oncogene tyrosine-protein kinase receptor Ret (Homo sapiens), P07949 [V804L] (P07949 whole entry V804L, the tested form may be a part): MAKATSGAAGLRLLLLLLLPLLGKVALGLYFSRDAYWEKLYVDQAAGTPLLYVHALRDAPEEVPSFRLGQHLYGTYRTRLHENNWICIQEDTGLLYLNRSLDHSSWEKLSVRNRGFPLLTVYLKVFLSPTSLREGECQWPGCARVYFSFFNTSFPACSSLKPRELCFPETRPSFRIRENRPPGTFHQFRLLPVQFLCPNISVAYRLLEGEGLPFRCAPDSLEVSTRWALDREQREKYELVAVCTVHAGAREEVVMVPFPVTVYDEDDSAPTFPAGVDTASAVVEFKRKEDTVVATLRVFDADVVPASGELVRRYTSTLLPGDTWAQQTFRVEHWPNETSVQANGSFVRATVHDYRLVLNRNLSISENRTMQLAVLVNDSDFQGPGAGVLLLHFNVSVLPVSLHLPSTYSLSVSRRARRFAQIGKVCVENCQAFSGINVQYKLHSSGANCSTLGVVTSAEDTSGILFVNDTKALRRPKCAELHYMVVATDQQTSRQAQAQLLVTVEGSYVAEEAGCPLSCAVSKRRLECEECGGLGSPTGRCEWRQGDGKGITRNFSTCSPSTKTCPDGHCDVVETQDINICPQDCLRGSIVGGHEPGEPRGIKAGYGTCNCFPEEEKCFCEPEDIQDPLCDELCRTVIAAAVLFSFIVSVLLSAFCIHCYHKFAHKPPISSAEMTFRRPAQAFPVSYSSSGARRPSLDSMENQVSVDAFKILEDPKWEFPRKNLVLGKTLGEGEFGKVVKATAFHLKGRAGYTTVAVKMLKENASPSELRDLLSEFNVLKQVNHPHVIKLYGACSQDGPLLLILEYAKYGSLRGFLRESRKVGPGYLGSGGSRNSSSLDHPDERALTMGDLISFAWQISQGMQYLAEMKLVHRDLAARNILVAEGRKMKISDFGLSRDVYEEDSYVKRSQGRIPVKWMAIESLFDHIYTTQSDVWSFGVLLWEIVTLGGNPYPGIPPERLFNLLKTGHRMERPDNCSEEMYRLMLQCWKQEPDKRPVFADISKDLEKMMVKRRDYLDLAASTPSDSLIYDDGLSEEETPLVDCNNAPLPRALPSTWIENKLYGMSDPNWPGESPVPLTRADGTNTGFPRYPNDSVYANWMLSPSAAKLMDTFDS
Chain of Kinesin-1 heavy chain/ Tyrosine-protein kinase receptor RET (P07949 whole entry, the tested form may be a part): as the sequence (P07949 whole entry V804L, the tested form may be a part) above, with L804V counted along it
Chain of Kinesin-1 heavy chain/ Tyrosine-protein kinase receptor RET (P33176 whole entry, further chain, the tested form may be a part): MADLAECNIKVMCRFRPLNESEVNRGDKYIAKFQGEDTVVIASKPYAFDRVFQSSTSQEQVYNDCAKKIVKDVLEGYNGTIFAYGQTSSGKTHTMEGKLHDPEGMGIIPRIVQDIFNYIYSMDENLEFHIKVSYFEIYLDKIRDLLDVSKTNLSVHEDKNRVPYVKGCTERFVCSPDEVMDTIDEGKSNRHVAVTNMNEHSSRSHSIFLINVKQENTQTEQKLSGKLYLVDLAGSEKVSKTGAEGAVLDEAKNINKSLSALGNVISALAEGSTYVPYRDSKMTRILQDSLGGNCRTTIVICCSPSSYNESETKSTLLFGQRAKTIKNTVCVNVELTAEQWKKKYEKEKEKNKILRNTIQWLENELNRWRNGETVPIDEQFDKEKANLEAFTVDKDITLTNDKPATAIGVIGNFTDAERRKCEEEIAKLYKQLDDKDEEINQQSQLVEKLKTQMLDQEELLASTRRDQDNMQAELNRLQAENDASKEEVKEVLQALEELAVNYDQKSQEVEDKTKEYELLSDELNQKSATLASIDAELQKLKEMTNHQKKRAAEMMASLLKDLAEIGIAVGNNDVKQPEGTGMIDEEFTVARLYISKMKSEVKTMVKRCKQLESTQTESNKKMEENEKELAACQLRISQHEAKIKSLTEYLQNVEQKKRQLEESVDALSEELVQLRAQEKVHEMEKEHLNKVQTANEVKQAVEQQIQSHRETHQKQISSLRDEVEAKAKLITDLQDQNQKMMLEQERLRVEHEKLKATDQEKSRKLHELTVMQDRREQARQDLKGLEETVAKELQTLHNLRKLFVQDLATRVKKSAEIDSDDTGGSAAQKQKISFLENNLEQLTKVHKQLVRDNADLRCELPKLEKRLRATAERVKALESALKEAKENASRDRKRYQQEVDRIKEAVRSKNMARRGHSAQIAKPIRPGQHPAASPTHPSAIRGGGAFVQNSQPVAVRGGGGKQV
Chain of Proto-oncogene tyrosine-protein kinase receptor Ret (P07949 whole entry, the tested form may be a part): as the sequence (P07949 whole entry V804L, the tested form may be a part) above, with L804V counted along it
Chain of Proto-oncogene tyrosine-protein kinase receptor Ret (Homo sapiens), P07949 [V804M] (P07949 whole entry V804M, the tested form may be a part): as the sequence (P07949 whole entry V804L, the tested form may be a part) above, with L804M counted along it

For `Cc1ccc(C(=O)Nc2ccc(CN3CCN(C)CC3)c(C(F)(F)F)c2)cc1Oc1nc(-c2cccnc2)nc2[nH]ncc12`, the GI50 [1] was 5370 nM, the inhibition [2] was “Active” and the inhibition (Mus musculus [3]) was “Dose-dependent effect”. For the same molecule, the inhibition (Mus musculus [4]) was “Dose-dependent effect”, the inhibition [5] was “Active” and the GI50 [6] was 9 nM. The IC50 [7] was 3.98 nM, the half-life [8] was 4.28 h and the Tmax [9] was 4.98 min. For the same molecule, the inhibition (BaF3 [10]) was “Active”, the GI50 at 48 h [11] was 8030 nM and the IC50 [12] was 8.86 nM. For the same molecule, the inhibition of growth at 3.3 µM (BGC-823) was 39%, the TGI (BaF3 [13]) was >60% and the GI50 [14] was 21 nM. The inhibition [15] was “Dose-dependent effect”, the Activity (BaF3 [16]) was “Dose-dependent effect” and the bioavailability [17] was 3%. For the same molecule, the GI50 [18] was 17 nM, the inhibition of growth at 3.3 µM (KYSE-450) was 39% and the GI50 (MDA-MB-231) was 2430 nM. For the same molecule, the inhibition (BaF3 [19]) was “Active”, the Activity [20] was 0.8% and the inhibition (Mus musculus [21]) was “Dose-dependent effect”. The inhibition [22] was “Active”, the inhibition [23] was “Dose-dependent effect” and the Activity [24] was 0.25%. For the same molecule, the Activity (BaF3 [25]) was “Active”, the half-life [26] was 7.59 h and the inhibition [27] was “Dose-dependent effect”. For the same molecule, the Activity [28] was “Non-Toxic” and the AUC(0-inf) [29] was 7010 ng·h/mL.

— ChEMBL document CHEMBL4706552, “Discovery of 4-methyl-N-(4-((4-methylpiperazin- 1-yl)methyl)-3-(trifluoromethyl)phenyl)-3-((6-(pyridin-3-yl)-1H-pyrazolo[3,4-d]pyrimidin-4-yl)-oxy)benzamide as a potent inhibitor of RET and its gatekeeper mutant” (Eur J Med Chem, 2020)
